How the values were obtained:
Sprague-Dawley rats = experiment: Infarct volume after transient middle cerebral artery occlusion, ischemia/reperfusion (I/R); assay type: in vivo, rat
Description: Sprague-Dawley rats were used to study the effects of (Ia) on reperfusion injury following stroke in a rodent model. The rats were anesthetized, and injected with (la) (0.01-0.1 mg/kg). After 30 minutes, occlusion of the middle cerebral artery (MCA) was performed.
The detailed methodology for permanent middle cerebral artery occlusion (MCAO) and transient (I/R) occlusion of the middle cerebral artery has been published previously.^46 Briefly, animals were placed in a David Kopf stereotaxic frame (Tujunga, Calif.), and the right middle cerebral artery (MCA) approached through a rostral-caudal incision of the skin and frontalis muscle at the approximate level of bregma. Blood flow through the MCA was impeded by the placement of surgical suture behind the MCA at three designated positions along the exposed vessel. The sutures were positioned so that the middle of each suture applied pressure to the underside of the MCA and impeded blood flow as confirmed using laser Doppler flowmetry (OxyFlo, Oxford-Optronix, Oxford, UK; Ref. 46). This three-point placement of surgical sutures produced a highly reproducible and consistent focal ischemic lesion (permanent ischemia) restricted to the prefrontal cerebral cortex. For transient I/R, the sutures were left in place for 30 min and then removed (reperfusion) to allow blood flow to return to the area for an additional 5.5 h (209 rats received I/R). In 12 rats, sutures were left in place for 6 h as a model of permanent ischemia.
To examine the effect of the compound of Formula (Ia) on I/R-induced cell death, injections of the compound of Formula (Ia) (0.01, 0.05, 0.1, or 0.5 mg/kg; 1 ml/kg iv; n=4 per group) or vehicle (25% EtOH; 1 ml/kg iv; n=6) were made 30 min prior to the onset of MCAO. The sutures were left in place for 30 min and removed. Reperfusion was allowed for 5.5 h, and the experiment was terminated.
To determine whether the compound of Formula (Ia) was neuroprotective when administered during the 30-min period of occlusion, injections of the compound of Formula (Ia) at a dose that produced optimal neuroprotection based on the dose-response-curve described above (0.1 mg/kg; 1 ml/kg iv; n=4) or vehicle (25% EtOH; 1 mi/kg iv; n=4) were made 15 min following the onset of MCAO. After a further 15 min, the sutures were removed to allow for an additional 5.5 h of reperfusion.
To examine the effect of the compound of Formula (Ia) on reperfusion injury alone, injections of the optimal dose of the compound of Formula (Ia) (0.1 mg/kg; 1 ml/kg iv; n=4 per group) or vehicle (1 ml/kg iv; n=4 or 5 per group) were made following 30 min of MCAO, immediately prior to the removal of the sutures, or 30, 60, 90, 120, or 180 min following suture removal (start of reperfusion). In all cases, the experiments were terminated following 5.5 h of reperfusion.
To determine whether the compound of Formula (Ia) required bioactivation and/or metabolism to an active intermediate to produce neuroprotection, the effect of direct intracortical injections of the compound of Formula (Ia) on infarct volume were investigated in the present model of transient occlusion (I/R). The compound of Formula (Ia) (0.01, 0.1, 0.5, or 1.0 μM in 200 n1; n=4 per group) or the same volume of vehicle (0.0125% EtOH; 200 n1; n=6) was injected into the ipsilateral hemisphere (bregma—0.3 mm, lateral—5.5 mm and depth of—3.0 mm from the dorsal surface of the brain)^47 10 min prior to suture placement followed by 30 min of MCAO and 5.5 h of reperfusion.
To examine the effect of the compound of Formula (Ia) on the change in infarct volume over the 5.5 h of reperfusion, injections of the optimal dose of the compound of Formula (Ia) (0.1 mg/kg; 1 ml/kg iv; n=4 per group) or vehicle (25% EtOH; 1 ml/kg iv; n=4) were made 30 min prior to the onset of MCAO. The sutures were left in place for 30 min. […]

[1] = system: markers of oxidative stress (SOD1, SOD2, GSH, GSSG, H2O2, HNE-His adducts, DNA fragmentation); experiment: Markers of oxidative stress in ischemic cortex following I/R; assay type: in vivo, rat
Description: To examine the effect of the compound of Formula (Ia) on various markers of oxidative stress throughout the 5.5 h of reperfusion, injections of the optimal dose of the compound of Formula (Ia) (0.1 mg/kg; 1 ml/kg iv; n=5 per group at each time point) or vehicle (25% EtOH; 1 ml/kg iv; n=5 per group at each time point) were made 30 min prior to the onset of MCAO. The sutures were left in place for 30 min. Brains were removed, and cortical tissue was collected at the end of the 30 min of occlusion (no reperfusion), or following 30 min, 1, 2, 4, or 5.5 h of reperfusion. At the end of each time point, animals were perfused transcardially with 200 ml of 100 mM PBS (pH 7.4), and the brains were removed. The ipsilateral cerebral cortex was isolated, and an 8-mm diameter biopsy punch was used to obtain tissue from the ischemic core. The tissue was weighed and homogenized (40% wt/vol) in ice-cold PBS. Aliquots of whole homogenate were frozen at −80° C. immediately for measurements of hydrogen peroxide (H2O2). The remaining sample was diluted 1:2 with ice-cold PBS and centrifuged at 12,000 g for 15 min at 4° C. Aliquots of the supernatant were stored at −80° C. until assayed for protein levels, superoxide dismutase (SOD1 and SOD2) activity, 4-hydroxynonenal-histodine (HNE-His) adducts (OxiSelect Kits, Cell Biolabs, San Diego, Calif.), reduced glutathione (GSH), oxidized glutathione (GSSG; Cayman Chemical, Ann Arbor Mich.), and cytoplasmic enrichment of DNA fragments (apoptosis) (Roche Diagnostics, Montreal, QC, Canada) using selective assay kits according to manufacturer's specifications.

COc1cc(C(C)=O)ccc1OC(=O)CCCCC1CCSS1 (stereo not drawn) [compound of Formula (Ia)]
infarct volume after 5.5 h reperfusion vs vehicle (Sprague-Dawley rats; 0.1 mg/kg iv 15 min into 30-min MCAO (15 min prior to reperfusion)): significant neuroprotection
infarct volume after 5.5 h reperfusion vs vehicle (Sprague-Dawley rats; 0.1 mg/kg iv 30 min following the start of reperfusion): significant decreases in infarct volume
infarct volume following I/R vs vehicle (Sprague-Dawley rats; 0.1 mg/kg iv 30 min prior to MCAO, 30 min MCAO, 5.5 h reperfusion): significant decrease in infarct volume
mean infarct volume smaller than the vehicle group (Sprague-Dawley rats; 0.1 mg/kg iv 30 min prior to MCAO, end of 5.5 h of reperfusion): ~53%
mean infarct volume vs vehicle, time course (Sprague-Dawley rats; 0.1 mg/kg iv 30 min prior to MCAO, measured at 4 h): significantly smaller
mean infarct volume vs vehicle, time course (Sprague-Dawley rats; 0.1 mg/kg iv 30 min prior to MCAO, measured at 6 h): significantly smaller
infarct volume after 5.5 h reperfusion vs vehicle (Sprague-Dawley rats; 0.1 mg/kg iv 60 min following the start of reperfusion): significant decreases in infarct volume
infarct volume after 5.5 h reperfusion vs vehicle (Sprague-Dawley rats; 0.1 mg/kg iv 90 min following the start of reperfusion): significant decreases in infarct volume
infarct volume after 5.5 h reperfusion vs vehicle (Sprague-Dawley rats; 0.1 mg/kg iv 120 min following suture removal): did not result in a significant difference in infarct volume
infarct volume after 5.5 h reperfusion vs vehicle (Sprague-Dawley rats; 0.1 mg/kg iv 180 min following suture removal): did not result in a significant difference in infarct volume
infarct volume after 5.5 h reperfusion vs vehicle (Sprague-Dawley rats; 0.1 mg/kg iv at time 0 (start of reperfusion)): significant decreases in infarct volume
infarct volume following I/R vs vehicle (Sprague-Dawley rats; 0.5 mg/kg iv 30 min prior to MCAO, 30 min MCAO, 5.5 h reperfusion): significant decrease in infarct volume
neuroprotection (infarct volume) following I/R (Sprague-Dawley rats; 0.01, 0.05, 0.1, 0.5 mg/kg iv 30 min prior to MCAO, 30 min MCAO, 5.5 h reperfusion): dose-dependent neuroprotection
stroke infarct volume (Sprague-Dawley rats; Example 3, 0.01-0.1 mg/kg injected 30 minutes before MCA occlusion, vs ethanol vehicle): dose-dependent reduction in stroke infarct volume
dose required to produce significant neuroprotection (Sprague-Dawley rats; I/R model, iv): 0.1 mg/kg
infarct volume following I/R vs vehicle (Sprague-Dawley rats; direct intracortical preinjection 1.0 μM (200 nl) 10 min pre-MCAO): significant decrease in infarct volume
latest administration time giving significant neuroprotection, following the start of reperfusion (Sprague-Dawley rats; optimal dose (0.1 mg/kg iv)): up to 90 min
mitochondrial SOD2 activity levels vs vehicle ([1]; 0.1 mg/kg iv 30 min prior to MCAO, 4-h time point): significantly higher
oxidized form of GSH (GSSG) vs vehicle ([1]; 0.1 mg/kg iv 30 min prior to MCAO, after 5.5 h of reperfusion): significantly greater
total amount of GSH (oxidized and reduced forms) vs vehicle ([1]; 0.1 mg/kg iv 30 min prior to MCAO, any time point): No significant differences
cytoplasmic SOD1 activity levels vs vehicle ([1]; 0.1 mg/kg iv 30 min prior to MCAO, any time point during 5.5 h reperfusion): no significant differences
level of hydrogen peroxide vs vehicle ([1]; 0.1 mg/kg iv 30 min prior to MCAO, any time point over 5.5 h reperfusion): not significantly greater
DNA fragmentation (apoptotic cell death) ([1]; 0.1 mg/kg iv 30 min prior to MCAO, each time point): No significant changes
HNE-His adduct levels vs vehicle ([1]; 0.1 mg/kg iv 30 min prior to occlusion, following 2 h of reperfusion): significantly attenuated

From US9012492B2, “Apocynin-lipoic acid conjugates and uses thereof” (priority 2011, dated 2015)
